This note sets out measurements from patent US6660910B1, “Selection marker” (Syngenta Mogen B.V., priority 1997, dated 2003).

SMILES strings stand for the structures.

In this assay the test system is non-morphogenic cell suspensions of Oryza sativa cv. IR 52. As to the kind of experiment: Rice transformation by particle gun with cyanamide or hygromycin selection. The class given is cell-based. As for the experimental part: Described below is the method used for transformation of non-morphogenic cell suspensions of Oryza sativa cv. IR 52 using a particle inflow gun (PIG) according to Finer et al. (Plant Cell Rep. 11, 323-328, 1992).
A long-term, non-morphogenic suspension culture of Oryza sativa cv. IR 52 was subcultured in weekly intervals in liquid LS-4 (Linsmaier and Skoog, Physiol. Plant. 18, 100-127, 1962) medium and maintained on a rotary shaker (110 rpm) at 28° C. in the dark. (The contents of the LS-4 medium can be found in Table Z). 3-4 days after the last subculture 1.5 ml of this cell suspension (appro. 1.5×10^6 cells) were evenly spread on a filter paper (Whatman no 4) which was subsequently placed on solidified LS-4 medium and cultivated in the dark at 28° C. for 24 h and directly used for bombardment thereafter. For microprojectile bombardment a home-made particle inflow gun (PIG) according to Finer et al. (1992) was used. 300 μg tungsten particles coated with either pMOG 617 (35S-gus and 35S-hyg) or pMOG 873 (35S-cah) were loaded on a particle support. The particles were accelerated by a 2.5 bar helium pulse and had to pass a 500 μm metal stop screen, placed 2 cm under the particle support. The suspension cells were placed 15 cm under the particle support. The PIG was evacuated to 30 mbar before bombardment. After bombardment the cells were cultured at 28° C. in the dark for 3 days. Then the filters with the cells were transferred to solid LS-4 medium containing various concentrations of cyanamide or 50 mg/l hygromycinB (see table 6). The subculture was repeated every 9 days. Resistant microcalli that were visible after 4-6 weeks were transferred to fresh LS-4 medium containing the respective selective agent. From two experiments 7+41 calli transformed with pMOG617 were found resistant to hygromycin, while for the transformation with pMOG873 7 calli survived cyanamide 20 mg/l in the first experiment (results from the second experiment not yet available) and 0+4 calli remained viable on 40 mg/l cyanamide. […] The transgenic nature was confirmed by testing parts of the developing callus for the presence of the DNA in the callitransformed with pMOG873.

Regarding `N#CN` [Cyanamide], the Callus formation entry (50 mg/l cyanamide or higher) is recorded as “No calli were formed”. Besides, the “Calli that remained viable” value (pMOG873 (35S-cah), 40 mg/l cyanamide, two experiments) is 0+4. The compound further displayed a Calli that survived (pMOG873 (35S-cah), cyanamide 20 mg/l, first experiment) of 7. Further, the “Surviving calli positive in a PCR experiment on the cah-gene” value (pMOG873, 40 mg/l cyanamide) is reported as “One of the 4”.
